In patent US5516790A, “Synthesis and application of alkyl-substituted dibenzofurans as antitumorigenic agents” (Texas A&M University System Technology Licensing Office, priority 1994, dated 1996):
Like-named read-outs stand apart in the source and are kept apart here.

What was measured:
[1] = system: 160-kDa protein; type: cell-based, human; details: for Secreted 160-kDa protein / Protein Secretion, 160-kDa: 2880 min;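 for Secreted 160-kDa protein: MCF-7 human breast cancer cells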
Protocol: (§1) On day 0, the media was removed and the cells were rinsed two times with PBS. […] The cells were allowed to incubate for 48 h. […] After 6 h, the media was removed, 10 μl was counted and the remaining media was used for analysis of secreted proteins.
(§2) The secreted proteins were analyzed by sodium dodecyl sulfate (SDS) polyacrylamide gel electrophoresis; 30 μl of the media was mixed with an equal volume of buffer containing SDS, β-mercaptoethanol, glycerol, Tris and bromophenol blue. The samples were heated for 2 minutes in a boiling water bath and 50 μl of each sample was loaded onto a 1.5 mm thick 12% acrylamide slab gel (containing 0.075% bisacrylamide) with a 3% stacking gel (containing 0.15% bisacrylamide). The gels were run at […] overnight and processed for fluorography (using Enhance: Dupont) and exposed to Kodak X-OMAT film for 10 days at -80° C. The molecular weights of the proteins were estimated by their mobility relative to a set of standard proteins with known molecular weights.
(§3) The incorporation of ^35 S-methionine into the 34-kDa, 52-kDa and 160-kDa proteins was estimated by scanning the films using a Zeineh Soft Laser Scanning Densitometer (model SLR-20/10) from Biomedical Instruments,Inc. The percentage of the area of the scans due to the particular protein was then compared between the experimental and control samples and the results are presented as means ± SD for at least three samples per treatment group.

[2] = system: 34-kDa protein; type: cell-based, human; details: for Secreted 34-kDa protein / Protein Secretion, 34-kDa: 2880 min;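 for Secreted 34-kDa protein: MCF-7 human breast cancer cells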
Protocol: as §1, §2, §3

[3] = system: 52-kDa protein; type: cell-based, human
Protocol: as §1, §2, §3

[4] = system: nuclear ER; test: Nuclear ER levels in MCF-7 cells; type: cell-based, human; details: for nuclear ER levels: TCDD (10 nM), MCDF (100 nM)
Protocol: MCF-7 cells, obtained from American Type Culture Collection (Rockville, Ma.), were maintained at 37° C. in closed Corning T-25, 75 or 150 cm^2 flasks (Corning Glassworks, Corning, N.Y.) and passaged in logarithmic growth phase.
For the 2,3,7,8-TCDD antiestrogenicity studies, cells were treated 24 hours prior to harvesting with various concentrations of 2,3,7,8-TCDD (0.1 nM to 100 nM 2,3,7,8-TCDD). Interactive effects between 2,3,7,8-TCDD and estradiol were conducted using these same concentrations of 2,3,7,8-TCDD and 10 nM estradiol. […]
MCF-7 cells from a single near confluent T-25 flask were incubated at 37° C. for 0.5 hours prior to harvesting with 10 nM 2,4,6,7-[^3H]-estradiol. The medium was then decanted and the cells were rinsed once with Hanks' balanced salt solution containing 1 mM EDTA. The cells were collected by centrifugation, washed gently in 2 ml of TEDG buffer and homogenized in 300 μl of TEDG buffer containing protease inhibitors [soybean trypsin inhibitor 5 mg/ml (Sigma), leupetin 1 mg/ml (Sigma), and phenylmethylsulfonyl fluoride 1 mg/ml (Sigma) by 40 strokes of a Dounce homogenizer. The homogenate was centrifuged at 800×g for 10 minutes. The crude nuclear pellet was resuspended in 300 μl of TEDGK buffer (10 mM Tris-HCl, 1.5 mM EDTA-4Na, 10 mM dithiothreitol, 10% (v/v) glycerol, 0.8 M KCl, pH 8.5 at 4° C.). The nuclear ER levels were then determined as described below.
The nuclear extract previously obtained was incubated with 10 nM [^3 H]-estradiol plus or minus radioinert diethylstilbestrol for 1 hour at 0-4° C., with resuspension by agitation every 15 minutes. The sample was then centrifuged at 180,000×g for 30 minutes, then 200 μl of the supernatant obtained was layered onto linear 1-20% sucrose gradients prepared in TEDGMK buffer. As before, the gradients were centrifuged at 406,000×g for 2.5 hours in a vertical rotor. Following centrifugation, 30 fractions of […] were collected and the radioactivity in each sample was determined.

[5] = system: nuclear ER; details: cited from earlier work
[6] = system: estrogen receptor; details: cited from earlier work
[7] = 17β-estradiol (1 nM) + TCDD 0.0001 nM
[8] = 17β-estradiol (1 nM) + TCDD 0.001 nM
[9] = 17β-estradiol (1 nM) + TCDD 0.01 nM
[10] = 17β-estradiol (1 nM) + TCDD 0.1 nM

Compound: Clc1cc2c(cc1Cl)Oc1cc(Cl)c(Cl)cc1O2 [TCDD, 2,3,7,8-tetrachloridibenzo-p-dioxin]
- secretion of the 160-kDa protein ([1]; 10 nM TCDD alone): did not significantly affect
- Secreted 160-kDa protein [1, 7]: 321 ± 29.0% of the values for control
- Secreted 160-kDa protein [1, 8]: 167 ± 31.3% of the values for control
- Secreted 160-kDa protein [1, 9]: 127 ± 21.0% of the values for control
- Secreted 160-kDa protein [1, 10]: 94.3 ± 5.23% of the values for control
- Secreted 160-kDa protein ([1]; TCDD alone, 0.0001 nM): 97.4 ± 2.73% of the values for control
- Secreted 160-kDa protein ([1]; TCDD alone, 0.001 nM): 94.3 ± 3.00% of the values for control
- Secreted 160-kDa protein ([1]; TCDD alone, 0.01 nM): 90.4 ± 17.2% of the values for control
- Secreted 160-kDa protein ([1]; TCDD alone, 0.1 nM): 92.8 ± 5.16% of the values for control
- hormone-induced secretion of the 160-kDa protein ([1]; TCDD plus 17β-estradiol): significantly inhibited
- secretion of the 34-kDa protein ([2]; 10 nM TCDD alone): did not significantly affect
- Secreted 34-kDa protein [2, 7]: 255 ± 37.8% of the values for control
- Secreted 34-kDa protein [2, 8]: 151 ± 20.7% of the values for control
- Secreted 34-kDa protein [2, 9]: 94.2 ± 24.0% of the values for control
- Secreted 34-kDa protein [2, 10]: 94.9 ± 11.4% of the values for control
- Secreted 34-kDa protein ([2]; TCDD alone, 0.0001 nM): 86.5 ± 8.56% of the values for control
- Secreted 34-kDa protein ([2]; TCDD alone, 0.001 nM): 95.2 ± 12.8% of the values for control
- Secreted 34-kDa protein ([2]; TCDD alone, 0.01 nM): 85.7 ± 11.9% of the values for control
- Secreted 34-kDa protein ([2]; TCDD alone, 0.1 nM): 94.5 ± 133% of the values for control
- hormone-induced secretion of the 34-kDa protein ([2]; TCDD plus 17β-estradiol): significantly inhibited
- secretion of the 52-kDa protein ([3]; 10 nM TCDD alone): did not significantly affect
- hormone-induced secretion of the 52-kDa protein ([3]; TCDD plus 17β-estradiol): significantly inhibited
- nuclear ER levels [4]: decrease in nuclear ER levels
- immunoreactive ER protein ([5]; concentration-dependent, antibodies to human ER): decrease in immunoreactive ER protein
- levels of occupied nuclear ER complex ([5]; cotreatment 10 nM TCDD plus [3H]-17β-estradiol): did not affect
- occupied nuclear ER levels ([5]; pretreatment with TCDD 6 or 12 hours prior to radiolabeled hormone): significant downregulation
- constitutive and 17β-estradiol induced uterine and hepatic estrogen receptor levels ([6]; female rat): decreased

Compound: Cc1cc(Cl)cc2c1oc1cc(Cl)cc(Cl)c12 [MCDF, 6-methyl 1,3,8-trichlorodibenzofuran]
- Protein Secretion, 160-kDa ([1]; 17β-estradiol + MCDF): 76 % of Control
- 17β-estradiol-induced secretion of the 160-kDa protein ([1]; MCDF): inhibits
- Protein Secretion, 160-kDa ([1]; MCDF alone (100 nM)): 72 % of Control
- Protein Secretion, 34-kDa ([2]; 17β-estradiol + MCDF): 78 % of Control
- 17β-estradiol-induced secretion of the 34-kDa protein ([2]; MCDF): inhibits
- Protein Secretion, 34-kDa ([2]; MCDF alone (100 nM)): 80 % of Control
- 17β-estradiol-induced secretion of the 52-kDa protein ([3]; MCDF): inhibits
- ERn ([4]; 2,3,7,8-TCDD (10 nM) + MCDF (15 μM)): 147.5(9.6) fmol/mg protein
- ERn ([4]; 2,3,7,8-TCDD (10 nM) + MCDF (50 μM)): 136.0(14.7) fmol/mg protein
- ERn ([4]; 2,3,7,8-TCDD (10 nM) + MCDF (75 μM)): 133.1(10.4) fmol/mg protein
- ERn ([4]; 2,3,7,8-TCDD (10 nM) + MCDF (100 μM)): 123.1(7.1) fmol/mg protein
- ERn ([4]; 2,3,7,8-TCDD (10 nM) + MCDF (150 μM)): 129.3(2.9) fmol/mg protein
- ERn ([4]; 2,3,7,8-TCDD (25 nM) + MCDF (15 μM)): 146.9(9.6) fmol/mg protein
- ERn ([4]; 2,3,7,8-TCDD (25 nM) + MCDF (50 μM)): 85.5(16.5) fmol/mg protein
- ERn ([4]; 2,3,7,8-TCDD (25 nM) + MCDF (75 μM)): 91.3(9.7) fmol/mg protein
- ERn ([4]; 2,3,7,8-TCDD (25 nM) + MCDF (100 μM)): 100.5 (10.4) fmol/mg protein
- ERn ([4]; 2,3,7,8-TCDD (25 nM) + MCDF (150 μM)): 108.1(18.1) fmol/mg protein
- ERn levels in MCF-7 cells ([4]; MCDF): significantly decreased
- ERn ([4]; MCDF alone (15 μM)): 207.5 (6.6) fmol/mg protein
- ERn ([4]; MCDF alone (50 μM)): 171.6 (13.7) fmol/mg protein
- ERn ([4]; MCDF alone (100 μM)): 135.8 (4.5) fmol/mg protein
- ERn ([4]; MCDF alone (150 μM)): 114.2 (7.9) fmol/mg protein
- ERn levels, combined treatment vs either 2,3,7,8-TCDD or MCDF ([4]; MCDF plus 2,3,7,8-TCDD): not significantly different
- combined effects on ERn levels in MCF-7 cells ([4]; MCDF plus 2,3,7,8-TCDD): clearly not additive
- nuclear ER levels [4]: decrease in nuclear ER levels
- ERn ([4]; alone (75 μM)): 141.8 (13.6) fmol/mg protein
- ERn ([4]; estradiol (10 nM) + 2,3,7,8-TCDD (10 nM) plus MCDF (15 nM)): 133.1 (14.3) fmol/mg protein
- ERn ([4]; estradiol (10 nM) + 2,3,7,8-TCDD (10 nM) plus MCDF (50 μM)): 122.3 (5.5) fmol/mg protein
- ERn ([4]; estradiol (10 nM) + 2,3,7,8-TCDD (10 nM) plus MCDF (100 μM)): 125.5 (9.7) fmol/mg protein
- ERn ([4]; estradiol (10 nM) + 2,3,7,8-TCDD (25 nM) plus MCDF (15 μM)): 132.6 (2.1) fmol/mg protein
- ERn ([4]; estradiol (10 nM) + 2,3,7,8-TCDD (25 nM) plus MCDF (50 μM)): 130.5 (5.3) fmol/mg protein
- ERn ([4]; estradiol (10 nM) + 2,3,7,8-TCDD (25 μM) plus MCDF (100 μM)): 123.8 (8.3) fmol/mg protein
- ERn ([4]; estradiol (10 nM) + MCDF (15 μM)): 113.4 (3.9) fmol/mg protein
- ERn ([4]; estradiol (10 nM) + MCDF (50 μM)): 103.4 (17.6) fmol/mg protein
- ERn ([4]; estradiol (10 nM) + MCDF (100 μM)): 106.4 (7.9) fmol/mg protein
- 17β-estradiol-induced accumulation of nuclear ER levels in MCF-7 cells [5]: inhibits
- upregulation of uterine nuclear and cytosolic estrogen receptor levels by 17β-estradiol ([6]; rat, in vivo): inhibits
- uterine and hepatic cytosolic and nuclear estrogen receptor levels ([6]; rat, in vivo): dose response decrease
